Biological target: recombinant Human Phosphodiesterase B2 (PDE4B2) (Homo sapiens, UniProt Q07343)
Experiment: Human Phosphodiesterase B2 Radiometric Assay (yttrium silicate SPA beads, [3H]cyclic AMP)
Format: biochemical
Details: recombinant human PDE4B2, radiometric SPA assay, 8 nM [3H]cyclic AMP; read-out: PDE4B2 pIC50 (converted)
In short: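 Compounds were preincubated 30 min at 30 °C with 0.1 mg/mL PDE4B2 in 50 mM HEPES pH 7.5, 8.3 mM MgCl2, 1.7 mM EGTA, 0.01% Brij 35. Then 8 nM [3H]cAMP was added for 20 min, stopped with yttrium silicate SPA beads plus 18 mM ZnSO4 capturing product 5′AMP; pIC50 by curve fitting.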

Sequence of recombinant Human Phosphodiesterase B2 (PDE4B2) (Q07343 1-564 isoform Q07343-2): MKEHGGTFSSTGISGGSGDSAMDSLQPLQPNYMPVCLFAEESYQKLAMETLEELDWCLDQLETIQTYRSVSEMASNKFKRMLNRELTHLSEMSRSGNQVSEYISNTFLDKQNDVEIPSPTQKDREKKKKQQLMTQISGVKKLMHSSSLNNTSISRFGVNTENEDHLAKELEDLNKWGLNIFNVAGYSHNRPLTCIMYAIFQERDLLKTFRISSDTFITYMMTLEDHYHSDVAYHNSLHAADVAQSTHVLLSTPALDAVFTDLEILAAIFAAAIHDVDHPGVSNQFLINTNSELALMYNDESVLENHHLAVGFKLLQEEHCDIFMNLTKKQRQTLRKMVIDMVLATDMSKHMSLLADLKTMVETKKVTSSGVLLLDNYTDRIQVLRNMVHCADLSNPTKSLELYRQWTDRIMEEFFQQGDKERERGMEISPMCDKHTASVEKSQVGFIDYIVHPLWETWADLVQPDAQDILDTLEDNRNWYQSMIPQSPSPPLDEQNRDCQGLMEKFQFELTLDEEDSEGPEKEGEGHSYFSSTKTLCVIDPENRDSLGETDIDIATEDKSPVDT

| Compound | IC50 |
| --- | --- |
| Cc1ccc(CN[C@H]2CC[C@@H](n3c(=O)c4cc(F)cnc4n(-c4cccc(-c5ccc(O)cc5CN5CCOCC5)c4)c3=O)CC2)cc1 [Example 278, 6-fluoro-1-[4′-hydroxy-2′-(morpholin-4-ylmethyl)biphenyl-3-yl]-3-{cis-4-[(4-methylbenzyl)amino]cyclohexyl}pyrido[2,3-d] pyrimidine-2,4(1H,3H)-dione] | 0.794 nM |
| O=c1c2cc(F)cnc2n(-c2cccc(-c3ccc(O)cc3CN3CCOCC3)c2)c(=O)n1[C@H]1CC[C@@H](NCc2cc3ccccc3o2)CC1 [Example 279, 3-{cis-4-[(1-benzofuran-2-ylmethyl)amino]cyclohexyl}-6-fluoro-1-[4′-hydroxy-2′-(morpholin-4-ylmethyl)biphenyl-3-yl]pyrido[2,3-d]pyrimidine-2,4(1H,3H)-dione] | 0.0398 nM |
| O=c1c2cc(F)cnc2n(-c2cccc(-c3ccc(O)cc3CN3CCOCC3)c2)c(=O)n1[C@H]1CC[C@@H](NCc2cccc(F)c2O)CC1 [Example 280, 6-fluoro-3-{cis-4-[(3-fluoro-2-hydroxybenzyl)amino]cyclohexyl}-1-[4′-hydroxy-2′-(morpholin-4-ylmethyl)biphenyl-3-yl]pyrido[2,3-d]pyrimidine-2,4(1H,3H)-dione] | 0.794 nM |
| O=c1c2cc(F)cnc2n(-c2cccc(-c3ccc(O)cc3CN3CCOCC3)c2)c(=O)n1[C@H]1CC[C@@H](NCc2ccc(Cl)cc2)CC1 [Example 281, 3-{cis-4-{(4-chlorobenzyl)amino]cyclohexyl}-6-fluoro-1-[4′-hydroxy-2′-(morpholin-4-ylmethyl)biphenyl-3-yl]pyrido[2,3-d]pyrimidine-2,4(1H,3H)-dione] | 1 nM |
| O=c1c2cc(F)cnc2n(-c2cccc(-c3ccc(O)cc3CN3CCOCC3)c2)c(=O)n1[C@H]1CC[C@@H](NCc2cc(F)ccc2F)CC1 [Example 282, 3-{cis-4-[(2,5-difluorobenzyl)amino]cyclohexyl}-6-fluoro-1-[4′-hydroxy-2′-(morpholin-4-ylmethyl)biphenyl-3-yl]pyrido[2,3-d]pyrimidine-2,4(1H,3H)-dione] | 0.794 nM |
| CC(C)c1ccc(CN[C@H]2CC[C@@H](n3c(=O)c4cc(F)cnc4n(-c4cccc(-c5ccc(O)cc5CN5CCOCC5)c4)c3=O)CC2)cc1 [Example 283, 6-fluoro-1-[4′-hydroxy-2′-(morpholin-4-ylmethyl)biphenyl-3-yl]-3-{cis-4-[(4-isopropylbenzyl)amino]cyclohexyl} pyrido[2,3-d]pyrimidine-2,4(1H,3H)-dione] | 1.26 nM |
| Cc1cccc(CN[C@H]2CC[C@@H](n3c(=O)c4cc(F)cnc4n(-c4cccc(-c5ccc(O)cc5CN5CCOCC5)c4)c3=O)CC2)n1 [Example 284, 6-fluoro-1-{4′-hydroxy-2′-(morpholin-4-ylmethyl)biphenyl-3-yl]-3-(cis-4-{[(6-methylpyridin-2-yl)methyl]amino}cyclohexyl)pyrido [2,3-d]pyrimidine-2,4(1H,3H)-dione] | 0.0794 nM |
| O=c1c2cc(F)cnc2n(-c2cccc(-c3ccc(O)cc3CN3CCOCC3)c2)c(=O)n1[C@H]1CC[C@@H](NCc2ccccc2F)CC1 [Example 285, 6-fluoro-3-{cis-4-[(2-fluorobenzyl)amino]cyclohexyl}-1-[4′-hydroxy-2′-(morpholin-4-ylmethyl)biphenyl-3-yl]pyrido[2,3-d]pyrimidine-2,4(1H,3H)-dione] | 0.794 nM |
| CN(Cc1cn2cc(F)ccc2n1)[C@H]1CC[C@@H](n2c(=O)c3cc(F)cnc3n(-c3cccc(-c4ccc(O)cc4CN4CCOCC4)c3)c2=O)CC1 [Example 286, 6-fluoro-3-{cis-4-[[(6-fluoroimidazo[1,2-a]pyridin-2-yl)methyl](methyl)amino]cyclohexyl}-1-[4′-hydroxy-2′-(morpholin-4-ylmethyl)biphenyl-3-yl]pyrido[2,3-d]pyrimidine-2,4(1H,3H)-dione] | 2 nM |
| CN(C)CC(=O)N[C@H]1CC[C@@H](n2c(=O)c3cc(F)cnc3n(-c3cccc(-c4ccc(CN5CCCN(C)CC5)cc4)c3)c2=O)CC1 [Example 287, N-{cis-4-[6-fluoro-1-{4′-[(4-methyl-1,4-diazepan-1-yl)methyl]biphenyl-3-yl}-2,4-dioxo-1,4-dihydropyrido[2,3-d]pyrimidin-3(2H)-yl]cyclohexyl}-N^2,N^2-dimethylglycinamide] | 0.631 nM |
| Cc1cnc(C(=O)N[C@H]2CC[C@@H](n3c(=O)c4cc(F)cnc4n(-c4cccc(-c5ccc(CN6CCN(C7CCCC7)CC6)cc5)c4)c3=O)CC2)cn1 [Example 288, N-{cis-4-[1-{4′-[(4-cyclopentylpiperazin-1-yl)methyl]biphenyl-3-yl}-6-fluoro-2,4-dioxo-1,4-dihydropyrido[2,3-d]pyrimidin-3(2H)-yl]cyclohexyl}-5-methylpyrazine-2-carboxamide] | 0.0501 nM |

Results, then the molecule that gave them:

| IC50 | Compound |
| --- | --- |
| 0.0126 nM | Cc1cc(C(=O)N[C@H]2CC[C@@H](n3c(=O)c4cc(F)cnc4n(-c4cccc(-c5ccc(CN6CCC(N7CCCCC7)CC6)cc5)c4)c3=O)CC2)nn1C [Example 289, N-{cis-4-[1-[4′-(1,4′-bipiperidin-1′-ylmethyl)biphenyl-3-yl]-6-fluoro-2,4-dioxo-1,4-dihydropyrido[2,3-d]pyrimidin-3(2H)-yl]cyclohexyl}-1,5-dimethyl-1H-pyrazole-3-carboxamide] |
| 0.01 nM | Cc1cccc(C(=O)N[C@H]2CC[C@@H](n3c(=O)c4cc(F)cnc4n(-c4cccc(-c5ccc(CN6C[C@@H](C)N[C@@H](C)C6)cc5)c4)c3=O)CC2)n1 [Example 290, N-{cis-4-[1-(4′-{[(3R,5S)-3,5-dimethylpiperazin-1-yl]methyl}biphenyl-3-yl)-6-fluoro-2,4-dioxo-1,4-dihydropyrido[2,3-d]pyrimidin-3(2H)-yl]cyclohexyl}-6-methylpyridine-2-carboxamide] |
| 0.2 nM | CN1CCN(CC(=O)N[C@H]2CC[C@@H](n3c(=O)c4cc(F)cnc4n(-c4cccc(-c5ccc(CN6CCCN(C)CC6)cc5)c4)c3=O)CC2)CC1 [Example 291, N-{cis-4-[6-fluoro-1-{4′-[(4-methyl-1,4-diazepan-1-yl)methyl]biphenyl-3-yl}-2,4-dioxo-1,4-dihydropyrido[2,3-d]pyrimidin-3(2H)-yl]cyclohexyl}-2-(4-methylpiperazin-1-yl)acetamide] |
| 0.0316 nM | CN1CCCN(Cc2ccc(-c3cccc(-n4c(=O)n([C@H]5CC[C@@H](NC(=O)CN6CCCCC6)CC5)c(=O)c5cc(F)cnc54)c3)cc2)CC1 [Example 292, N-{cis-4-[6-fluoro-1-{4′-[(4-methyl-1,4-diazepan-1-yl)methyl]biphenyl-3-yl}-2,4-dioxo-1,4-dihydropyrido[2,3-d]pyrimidin-3(2H)-yl]cyclohexyl}-2-piperidin-1-ylacetamide] |
| 2 nM | CN1CCCN(Cc2ccc(-c3cccc(-n4c(=O)n([C@H]5CC[C@@H](NC(=O)CCN6CCCCC6)CC5)c(=O)c5cc(F)cnc54)c3)cc2)CC1 [Example 293, N-{cis-4-[6-fluoro-1-{4′-[(4-methyl-1,4-diazepan-1-yl)methyl]biphenyl-3-yl}-2,4-dioxo-1,4-dihydropyrido[2,3-d]pyrimidin-3(2H)-yl]cyclohexyl}-3-piperidin-1-ylpropanamide] |
| 0.0158 nM | Cc1cccc(C(=O)N[C@H]2CC[C@@H](n3c(=O)c4cc(F)cnc4n(-c4cccc(-c5ccc(CN6CCN(C7CCCC7)CC6)cc5)c4)c3=O)CC2)n1 [Example 294, N-{cis-4-[1-{4′-[(4-cyclopentylpiperazin-1-yl)methyl]biphenyl-3-yl}-6-fluoro-2,4-dioxo-1,4-dihydropyrido[2,3-d]pyrimidin-3(2H)-yl]cyclohexyl}-6-methylpyridine-2-carboxamide] |
| 0.1 nM | O=C(N[C@H]1CC[C@@H](n2c(=O)c3cc(F)cnc3n(-c3cccc(-c4ccc(CN5CCN(C6CCCC6)CC5)cc4)c3)c2=O)CC1)c1cnccn1 [Example 295, N-{cis-4-[1-{4′-[(4-cyclopentylpiperazin-1-yl)methyl]biphenyl-3-yl}-6-fluoro-2,4-dioxo-1,4-dihydropyrido[2,3-d]pyrimidin-3(2H)-yl]cyclohexyl} pyrazine-2-carboxamide] |
| 0.01 nM | O=C(N[C@H]1CC[C@@H](n2c(=O)c3cc(F)cnc3n(-c3cccc(-c4ccc(CN5CCC(N6CCCCC6)CC5)cc4)c3)c2=O)CC1)c1cnc2ccccc2n1 [Example 296, N-{cis-4-[1-[4′-(1,4′-bipiperidin-1′-ylmethyl)biphenyl-3-yl]-6-fluoro-2,4-dioxo-1,4-dihydropyrido[2,3-d]pyrimidin-3(2H)-yl]cyclohexyl} quinoxaline-2-carboxamide] |
| 0.0316 nM | Cc1cnc(C(=O)N[C@H]2CC[C@@H](n3c(=O)c4cc(F)cnc4n(-c4cccc(-c5ccc(CN6CCC(N7CCCCC7)CC6)cc5)c4)c3=O)CC2)cn1 [Example 297, N-{cis-4-[1-[4′-(1,4′-bipiperidin-1′-ylmethyl)biphenyl-3-yl]-6-fluoro-2,4-dioxo-1,4-dihydropyrido[2,3-d]pyrimidin-3(2H)-yl]cyclohexyl}-5-methylpyrazine-2-carboxamide] |
| 0.0316 nM | O=C(N[C@H]1CC[C@@H](n2c(=O)c3cc(F)cnc3n(-c3cccc(-c4ccc(CN5CCC(N6CCCCC6)CC5)cc4)c3)c2=O)CC1)c1nc2ccccc2[nH]1 [Example 298, N-{cis-4-[1-[4′-(1,4′-bipiperidin-1′-ylmethyl)biphenyl-3-yl]-6-fluoro-2,4-dioxo-1,4-dihydropyrido[2,3-d]pyrimidin-3(2R)-yl]cyclohexyl}-1H-benzimidazole-2-carboxamide] |
| 0.0158 nM | Cc1cccc(C(=O)N[C@H]2CC[C@@H](n3c(=O)c4cc(F)cnc4n(-c4cccc(-c5ccc(CN6CCC(N7CCCCC7)CC6)cc5)c4)c3=O)CC2)n1 [Example 299, N-{cis-4-[1-[4′-(1,4′-bipiperidin-1′-ylmethyl)biphenyl-3-yl]-6-fluoro-2,4-dioxo-1,4-dihydropyrido[2,3-d]pyrimidin-3(2H)-yl]cyclohexyl}-6-methylpyridine-2-carboxamide] |
